Measured values published in patent publication US9689040B2, “Selective inhibitors of tumor-initiating cells” (Children's Medical Center Corporation, priority 2011, dated 2017).
Like-named read-outs stand apart in the source and are kept apart here.

Key:
TGS transcripts = details: Instance ID 6709, cited from earlier work
BPLER cells [1] = test: qRT-PCR of TGS transcripts after TSA treatment; format: cell-based, human; details: 1 μM TSA, 24 hr
Method: (§1) The CMAP data predicted that TSA would suppress expression of 52 TGS transcripts by ≧1.8-fold (Table 6). We measured the change in expression of the top 11 of these transcripts in BPLER and HMLER cells treated with TSA.
(§2) qRT-PCR analysis was performed as described^41. Briefly, total RNA was extracted with TRIZOL (Invitrogen) and cDNA prepared from 600-900 ng total RNA using TH[…] kit (Invitrogen) as per the manufacturer's instructions. 2.5 ul of diluted cDNA (1:20) was used as template for qPCR using POWER SYBR-GREEN MASTER MIX (Applied Biosystems) and BIORAD C1000 THERMAL CYCLER (Biorad). Primer sequences are available upon request. Relative CT values were normalized to […]-actin and converted to a linear scale using the −ΔCT method.

HMLER cells = test: qRT-PCR of TGS transcripts after TSA treatment; format: cell-based, human; details: 1 μM TSA, 24 hr
Method: as §1, §2

BPLER cells [2] = test: Cell viability after drug treatment (CellTiterGlo / Trypan-Blue); format: cell-based, human; details: increasing doses, 24 hr

In the case of `CC(/C=C/C(=O)NO)=C\[C@@H](C)C(=O)c1ccc(N(C)C)cc1` [TSA, Trichostatin A], the Amplitude (TGS transcripts; BUB1, probe set 215509_s_at) is given as −0.84, the Amplitude (TGS transcripts; C7orf25 /// PSMA2, probe set 221573_at) is given as −0.7 and the Amplitude (TGS transcripts; C12orf10, probe set 218220_at) is given as −0.5. For the same molecule, the Amplitude (TGS transcripts; C19orf29, probe set 215954_s_at) was −0.49, the Amplitude (TGS transcripts; CANX, probe set 208852_s_at) was −0.55 and the Amplitude (TGS transcripts; CANX, probe set 208853_s_at) was −0.81. For the same molecule, the Amplitude (TGS transcripts; CCNA2, probe set 203418_at) was −0.83, the Amplitude (TGS transcripts; CCNA2, probe set 213226_at) was −0.63 and the Amplitude (TGS transcripts; CDC5L, probe set 209055_s_at) was −1.19. For the same molecule, the Amplitude (TGS transcripts; CDK13, probe set 207318_s_at) was −0.87, the Amplitude (TGS transcripts; CDK13, probe set 207319_s_at) was −0.79 and the Amplitude (TGS transcripts; CDK17, probe set 206474_at) was −0.74. For the same molecule, the Amplitude (TGS transcripts; CDK17, probe set 221918_at) was −0.66, the Amplitude (TGS transcripts; DDX19A /// DDX19B, probe set 202576_s_at) was −0.73 and the Amplitude (TGS transcripts; DHX8, probe set 203334_at) was −0.45. The Amplitude (TGS transcripts; DNAJC11, probe set 215792_s_at) was −0.47, the Amplitude (TGS transcripts; DYSF, probe set 218660_at) was −0.43 and the Amplitude (TGS transcripts; FYCO1, probe set 218204_s_at) was −0.5. The Amplitude (TGS transcripts; GAPDH, probe set AFFX-HUMGAPDH/M33197_5_at) was −1.17, the Amplitude (TGS transcripts; GAPDH, probe set AFFX-HUMGAPDH/M33197_M_at) was −0.62 and the Amplitude (TGS transcripts; HIPK3, probe set 210148_at) was −0.46. The Amplitude (TGS transcripts; LSM2, probe set 209449_at) was −0.44, the Amplitude (TGS transcripts; MCL1, probe set 200796_s_at) was −1.46 and the Amplitude (TGS transcripts; MFSD5, probe set 212861_at) was −0.77. For the same molecule, the Amplitude (TGS transcripts; MGAT2, probe set 203101_s_at) was −0.67, the Amplitude (TGS transcripts; MTA2, probe set 203444_s_at) was −0.74 and the Amplitude (TGS transcripts; NAA38, probe set 219119_at) was −0.47. The Amplitude (TGS transcripts; NDC80, probe set 204162_at) was −1.07, the Amplitude (TGS transcripts; NME3, probe set 204862_s_at) was −0.6 and the Amplitude (TGS transcripts; NUP205, probe set 212247_at) was −0.65. The Amplitude (TGS transcripts; PDCD4, probe set 202731_at) was −1.07, the Amplitude (TGS transcripts; PFKL, probe set 201102_s_at) was −0.67 and the Amplitude (TGS transcripts; POLR2F, probe set 209511_at) was −0.43. The Amplitude (TGS transcripts; PRC1, probe set 218009_s_at) was −0.67, the Amplitude (TGS transcripts; PSMA1, probe set 201676_x_at) was −0.4 and the Amplitude (TGS transcripts; PSMA1, probe set 210759_s_at) was −0.74. The Amplitude (TGS transcripts; PSMA1, probe set 211746_x_at) was −0.45, the Amplitude (TGS transcripts; PSMA2, probe set 201317_s_at) was −0.41 and the Amplitude (TGS transcripts; PSMA3, probe set 201532_at) was −0.63. For the same molecule, the Amplitude (TGS transcripts; PSMB4, probe set 202243_s_at) was −0.43, the Amplitude (TGS transcripts; PSMC1, probe set 204219_s_at) was −0.53 and the Amplitude (TGS transcripts; PSMC3, probe set 201267_s_at) was −1.66. The Amplitude (TGS transcripts; PSMD7, probe set 201705_at) was −1.01, the Amplitude (TGS transcripts; RAN, probe set 200750_s_at) was −0.48 and the Amplitude (TGS transcripts; RBM22, probe set 218134_s_at) was −0.75. The Amplitude (TGS transcripts; RBMX, probe set 213762_x_at) was −0.58, the Amplitude (TGS transcripts; SCD, probe set 211162_x_at) was −0.92 and the Amplitude (TGS transcripts; SCD, probe set 211708_s_at) was −0.83. The Amplitude (TGS transcripts; SH3GL3, probe set 211565_at) was −0.64, the Amplitude (TGS transcripts; SNW1, probe set 215424_s_at) was −1.16 and the Amplitude (TGS transcripts; TMED3, probe set 208837_at) was −0.42. The Amplitude (TGS transcripts; TMEM14B, probe set 221452_s_at) was −0.48, the Amplitude (TGS transcripts; TNPO1, probe set 207657_x_at) was −0.42 and the Amplitude (TGS transcripts; TNPO1, probe set 209226_s_at) was −0.68. For the same molecule, the Amplitude (TGS transcripts; USP39, probe set 217829_s_at) was −0.56, the Amplitude (TGS transcripts; probe set 200749_at (gene symbol —)) was −0.5 and the BPE viability (BPE cells; at the indicated dose) was “no effect on BPE viability”. For the same molecule, the “combination with bortezomib: cytotoxicity in untransformed BPE cells” value (BPE cells; in vitro) was “not cytotoxic”, the “expression of the top 11 predicted TGS transcripts” value (BPLER cells [1]) was “significantly decreased” and the “expression of the top 11 predicted TGS transcripts” value (HMLER cells) was “All but two of these also had significantly reduced expression”. The “sensitivity of BPLER relative to HMLER cells (viability)” value (BPLER cells [2]) was “selectively lethal for BPLER compared to HMLER”.
